Earlier results in patent EP4628546A1, “CYANINE DIMERS FOR PHOTOTHERMAL TREATMENT OF CANCER GUIDED BY FLUORESCENCE/PHOTOACOUSTIC IMAGING” (Centre National de la Recherche Scientifique, priority 2024, dated 2025).

Settings: IR 780 in EtOH, reference value

Φfluo,ref: 0.08
Compound: CCCN1/C(=C/C=C2\CCCC(/C=C/C3=[N+](CCC)c4ccccc4C3(C)C)=C2Cl)C(C)(C)c2ccccc21.[I-] [IR 780]
